Reference: patent publication US20120232070A1, “Use of Indole Derivatives as Nurr-1 Activators for the Application Thereof as a Medicament for the Treatment of Parkinson's Disease” (Laboratoires Fournier SA, priority 2009, published 2012)

How the values were obtained:
[1] = biological target: hNurr1_RXRγFL (NURR1/RXRγ heterodimer) (Homo sapiens, UniProt P43354+P48443); test: Transactivation assay in Cos-7 cells, NURR-1-Gal4 / RXRγ, luciferase reporter; format: cell-based; conditions: for Emax: COS-7, read-out: hNurr1_RXRγFL Eff (%), efficacy in % relative to the reference XCT0135908 at 2·10^−5 M (=100%); for EC50: Cos-7 cells, overnight incubation
Procedure, shortened: (§1)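 Efficiency is given as a percentage of the induction produced by 2·10^−5 M XCT0135908 (100%), measured from heterodimer baseline. Read-out was luciferase after overnight exposure to compounds (10^−4–3·10^−10 M final) in Cos-7 cells transfected with NURR-1-Gal4, RXRα or RXRγ, and a Gal4 luciferase reporter.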

[2] = Plasma and cerebral pharmacokinetic profile after oral administration; format: in vivo, male C57B16 mouse; conditions: oral administration 10 mg/kg in the mouse; for Kp: male, C57B16, brain/plasma, read-out: Ratio AUCbrain/AUCplasma
Procedure: A first series of in vivo assays were conducted with some compounds according to the invention, for the purpose of determining their plasma and cerebral pharmacokinetic profile in the male C57B16 mouse and thus verify that the compounds were capable of crossing the blood-brain barrier. The following procedure was used.
Male C57B16 mice (25-30 g) obtained from the Janvier establishment, Le Genest-St-Isle, France were used for this study (12 mice per dose). The animals were fed with standard rodent feed (Purina Mills, St. Louis, Mo.), placed in cages and subjected to light/darkness cycles of 12 h/12 h, the temperature of the room being maintained at 22±2° C. and the humidity at 55±10%. The mice were not fasting before administration. Water was supplied ad libitum throughout the study. The assayed compound was administered orally at 10 mg/kg. For oral administration at 10 mg/kg, the animals were force-fed with 10 mL/kg of a suspension of the assayed compound, prepared in methylcellulose 400 cp 1%. The animals were euthanized by anaesthesia at intervals of 15 min, 30 min, 1 h, 3 h, 6 h and 8 h after force-feeding. At each interval, blood was collected and the brain was removed from each euthanized animal. 1 mL of blood collected in 1.5 mL tubes containing 20 μL of evaporated anticoagulant (solution of sodium heparinate at 1000 IU/mL) was centrifuged at 4500 g for 3 min, obtaining about 400 μL of plasma. The plasma was distributed in 2 aliquots of 200 μL which were stored at −20° C. until extraction by protein precipitation and then analysis by liquid chromatography coupled with tandem mass spectrometry (LC-MS/MS) for quantification of the assayed compound. The brains were immersed in liquid nitrogen directly after removal, then stored at −20° C. for analysis. The brains were then ground in the presence of aqueous/organic solvent mixture to obtain a homogenate. These homogenates were then centrifuged and the assayed compound was extracted from the supernatant by liquid-liquid extraction, then quantified by LC-MS/MS.
The pharmacokinetic parameters were determined according to a non-compartmental approach using Excel. The area under curve (AUC0-t) was determined by the linear trapezoidal method. This method allows estimation of the integral of the concentrations over an interval of time (AUC0-t) and is based on the sum of the areas of the trapeziums delimited by the concentrations measured at the time of sampling (example AUC0-8 h=AUC0-0.25 h+AUC0.25 h-0.5 h+AUC0.5 h-t+AUCt-8 h). The penetration of the compounds through the blood-brain barrier is assessed from the ratio of the AUC measured in the brain to that measured in plasma. As an example, with the compounds of examples 32 and 49, the following results were obtained: […]

[3] = biological target: hNurr1_RXRαFL (NURR1/RXRα heterodimer) (Homo sapiens, UniProt P19793+P43354); test: Transactivation assay in Cos-7 cells, NURR-1-Gal4 / RXRα, luciferase reporter; format: cell-based; conditions: for Emax: COS-7, read-out: hNurr1_RXRαFL Eff (%), efficacy in % relative to the reference XCT0135908 at 2·10^−5 M (=100%); for EC50: Cos-7 cells, overnight incubation
Procedure, shortened: as §1

[4] = system: mice treated with 1-methyl-4-phenyl-1,2,3,6-tetrahydropyridine (MPTP); test: MPTP mouse model, dopamine in the striatum; format: in vivo, male C57BL6/J mice; conditions: oral, twice a day for 11 days; MPTP 25 mg/kg i.p. once a day for 5 days; FIGS. 1 and 2
Procedure: The compounds of examples 32 and 49 were assayed on a model of mice treated with 1-methyl-4-phenyl-1,2,3,6-tetrahydropyridine (MPTP) in order to confirm their potential activities. MPTP is a neurotoxin which causes permanent symptoms of Parkinson's disease by destroying certain neurons in the substantia nigra of the brain. The following procedure was used.
Male C57BL6/J mice aged 10-12 weeks at the start of the studies were distributed in groups of 8 animals. The compounds were administered orally, twice a day for a total of 11 days. Administration began 3 days before the treatment with the MPTP toxin at 25 mg/kg. MPTP was administered once a day by intraperitoneal injection for 5 days. Administration of the assayed compounds was continued for 3 days after the treatment with MPTP. One group of mice received the carrier only (0.5% solution of methylcellulose). The animals were euthanized after the last force-feeding and the striatum was removed. Dopamine was extracted from the striatum and the amount of dopamine (DA) expressed in ng per g of striatum (mean±SEM) was measured by high-performance liquid chromatography (HPLC) with electrochemical detection.

hNurr1_RXRγFL (NURR1/RXRγ heterodimer), sequence (P43354 328-598): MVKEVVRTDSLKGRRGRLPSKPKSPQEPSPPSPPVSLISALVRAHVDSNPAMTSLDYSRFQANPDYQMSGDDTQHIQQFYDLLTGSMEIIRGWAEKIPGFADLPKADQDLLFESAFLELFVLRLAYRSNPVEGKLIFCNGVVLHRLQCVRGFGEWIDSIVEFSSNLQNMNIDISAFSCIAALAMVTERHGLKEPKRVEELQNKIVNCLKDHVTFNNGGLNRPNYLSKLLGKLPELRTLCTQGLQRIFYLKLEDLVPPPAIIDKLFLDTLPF
hNurr1_RXRγFL (NURR1/RXRγ heterodimer), sequence (P48443 whole entry, the tested form may be a part): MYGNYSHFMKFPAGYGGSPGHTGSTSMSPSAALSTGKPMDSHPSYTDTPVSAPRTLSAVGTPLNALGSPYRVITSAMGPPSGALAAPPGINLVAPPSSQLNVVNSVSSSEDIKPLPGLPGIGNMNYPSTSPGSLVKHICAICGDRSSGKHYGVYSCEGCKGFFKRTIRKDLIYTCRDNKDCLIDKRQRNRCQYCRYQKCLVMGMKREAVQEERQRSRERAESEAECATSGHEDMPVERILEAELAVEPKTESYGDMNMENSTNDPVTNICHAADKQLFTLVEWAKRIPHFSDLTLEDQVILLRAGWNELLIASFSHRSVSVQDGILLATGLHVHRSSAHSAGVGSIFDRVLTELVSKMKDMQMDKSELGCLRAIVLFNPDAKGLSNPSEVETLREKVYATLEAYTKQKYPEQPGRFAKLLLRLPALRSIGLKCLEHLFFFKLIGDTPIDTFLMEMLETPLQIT
hNurr1_RXRαFL (NURR1/RXRα heterodimer), sequence (P19793 whole entry, the tested form may be a part): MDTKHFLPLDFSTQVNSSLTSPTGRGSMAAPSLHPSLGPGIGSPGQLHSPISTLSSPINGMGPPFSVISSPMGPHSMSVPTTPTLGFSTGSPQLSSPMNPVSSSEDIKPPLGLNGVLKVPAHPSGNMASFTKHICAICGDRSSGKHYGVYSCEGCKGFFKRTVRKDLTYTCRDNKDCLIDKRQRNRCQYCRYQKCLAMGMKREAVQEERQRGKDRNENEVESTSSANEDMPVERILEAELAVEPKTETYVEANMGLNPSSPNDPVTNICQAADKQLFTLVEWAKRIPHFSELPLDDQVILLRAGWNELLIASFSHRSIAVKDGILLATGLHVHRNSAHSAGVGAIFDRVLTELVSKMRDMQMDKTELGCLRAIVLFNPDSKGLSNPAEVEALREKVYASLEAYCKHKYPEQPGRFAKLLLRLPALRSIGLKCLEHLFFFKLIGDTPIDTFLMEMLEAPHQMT
hNurr1_RXRαFL (NURR1/RXRα heterodimer), sequence (P43354 328-598): as the sequence (P43354 328-598) above

| Compound | Emax [1] | EC50 [1] | Kp [2] | AUCbrain [2] | Emax [3] | EC50 [3] | effect on the MPTP-induced decrease of dopamine in the striatum [4] | melting point | hNurr1_RXRαFL Eff (%) ([3]; efficacy in % relative to the reference XCT0135908 at 2·10^−5 M (=100%)) |
| --- | --- | --- | --- | --- | --- | --- | --- | --- | --- |
| CC(C)(C)c1cccc(S(=O)(=O)n2c(Cc3ccc(C(=O)O)cc3)cc3cc(C(F)(F)F)ccc32)c1 [Example 49, 4-[[1-[[3-(1,1-dimethylethyl)phenyl]sulfonyl]-5-(trifluoromethyl)-1H-indol-2-yl]methyl]benzoic acid] | 71% | 110 nM | 0.8 | 10491 ng·h/mL | 73% | 48 nM | dose-dependent decrease in the action of MPTP | – | – |
| CC(C)(C)c1cccc(S(=O)(=O)n2c(Cc3ccc(C(=O)O)cc3F)cc3cc(C(F)(F)F)ccc32)c1 [Example 67, 4-[[1-[[3-(1,1-dimethylethyl)phenyl]sulfonyl]-5-trifluoromethyl-1H-indol-2-yl]methyl]-3-fluorobenzoic acid] | 75% | 91 nM | – | – | 73% | 28 nM | – | 177 °C | – |
| CC(C)c1cccc(S(=O)(=O)n2c(Cc3ccc(C(=O)O)cc3)cc3cc(C(F)(F)F)ccc32)c1 [Example 32, 4-[[1-[[3-(1-methylethyl)phenyl]sulfonyl]-5-(trifluoromethyl)-1H-indol-2-yl]methyl]benzoic acid] | 62% | 219 nM | 0.8 | 3763 ng·h/mL | – | 103 nM | dose-dependent decrease in the action of MPTP | – | 68% |
